Test results taken from patent publication US20200323790A1, “METHOD FOR TREATMENT OF ACUTE LUNG INJURY BY USE OF KIRENOL” (CHUNG SHAN MEDICAL UNIVERSITY, priority 2019, published 2020).

How the values were obtained:
BALB/c mice [1] = assay: Lung tissue wet/dry ratio (lung edema) in LPS-induced ALI mice; assay type: in vivo; settings: kirenol 3, 10, 30 mg/kg IP, FIG. 2
Method: (§1) BALB/c mice (5-7 weeks old) are obtained from the National Laboratory Animal Center (NLAC) and maintained in the laboratory for a week in order to adapt to the environment. Then experiments are carried out as follows. The mice are divided into three groups. The control group: mice in the group are injected with normal saline by intratracheal injection (IT). The LPS stimulated group: mice in the group are treated with a 50 μL solution containing 100 μg of lipopolysaccharide (LPS) by IT for inducing ALI. The kirenol group: mice are given an intraperitoneal injection (IP) of 3 mg/kg, 10 mg/kg, and 30 mg/kg of kirenol respectively. After 30 minutes, each mouse is treated with 100 μg of LPS by IT. The dexamethasone group: mice are dosed with 1 mg/kg of dexamethasone by IP and then treated with 100 μg of LPS by IT after 30 minutes.
(§2) The mice in the respective group are killed 6 hours after LPS administration. Then use bronchoalveolar lavage (BAL) to get (Bronchoalveolar lavage fluid (BALF). And perform differential blood count, detect neutrophil activity and measure protein content in BALF. The lung tissue of the mice is used in histopathology examination, analysis of pulmonary edema, lipid peroxidation assay, and antioxidant activity analysis.
The mice are killed and lung tissue is obtained. […] Thereby the wet/dry ratio of the lung tissue is calculated by dividing the wet weight by the dry weight.

BALB/c mice [2] = assay: Protein content in BALF (Bradford assay) in LPS-induced ALI mice; assay type: in vivo; settings: kirenol 3, 10, 30 mg/kg IP, FIG. 3
Method: as §1
(§3) The mice in the respective group are killed 6 hours after LPS administration. […]
(§4) Polymorphonuclear leucocytes and protein in the capillary flow into the alveoli while alveolar capillary barrier being damaged. Thus the integrity of alveolar capillary barrier can be evaluated by analysis of the content of polymorphonuclear leucocytes and protein in the BALF. […]

[3] = system: superoxide dismutase (SOD); assay: Antioxidant enzyme activity in lung tissue: SOD; assay type: in vivo, mice; settings: kirenol 3, 10, 30 mg/kg IP; vs LPS stimulated group; FIG. 6
Method: as §1, §2
(§5) During acute lung injury, the increasing pulmonary oxidative stress easily leads to lung tissue damage. […]

BALB/c mice [4] = assay: Neutrophils in BALF (Giemsa stain) in LPS-induced ALI mice; assay type: in vivo; settings: kirenol 3, 10, 30 mg/kg IP; vs LPS stimulated group; FIG. 4
Method: as §1, §3, §4

[5] = system: glutathione peroxidase (GSH); assay: Antioxidant enzyme activity in lung tissue: glutathione peroxidase; assay type: in vivo, mice; settings: kirenol 3, 10, 30 mg/kg IP; vs LPS stimulated group; FIG. 8
Method: as §1, §2, §5

BALB/c mice [6] = assay: Histopathology (H&E) of lung in LPS-induced ALI mice; assay type: in vivo; settings: LPS 100 μg IT; kirenol 3, 10, 30 mg/kg IP or dexamethasone 1 mg/kg IP 30 min before LPS; 6 h after LPS; FIG. 1
Method: as §1, §2
Kirenol used is obtained from ChemFaces (Catalog No. CFN98867) dissolved in Dimethyl sulfoxide (DMSO). […]

catalase (CAT) = assay: Antioxidant enzyme activity in lung tissue: CAT; assay type: in vivo, mice; settings: kirenol 3, 10, 30 mg/kg IP; vs LPS stimulated group; FIG. 7
Method: as §1, §2, §5

BALB/c mice [7] = assay: Lipid peroxidation (malondialdehyde, MDA) in lung of LPS-induced ALI mice; assay type: in vivo; settings: kirenol 3, 10, 30 mg/kg IP; vs LPS stimulated group; FIG. 5
Method: as §1, §3
For evaluation of lung tissue damage, the amount of malondialdehyde (MDA), the final product of lipid peroxidation in lung, is measured. […] Lastly absorbance of the mixed solution is measured at 532 nm.

## C[C@@]1(CO)C[C@@H](O)C[C@@]2(C)[C@@H]3CC[C@](C)([C@@H](O)CO)C=C3CC[C@H]12 [Kirenol]
BALB/c mice [1]
  lung edema induced by LPS: improves lung edema induced by LPS in a dose dependent fashion
BALB/c mice [1]; vs LPS stimulated group
  wet/dry ratio of the lung tissue: reduced
BALB/c mice [2]
  integrity of alveolar capillary barrier: prevents damage to the integrity of alveolar capillary barrier caused by LPS in a dose dependent way
BALB/c mice [2]; vs LPS stimulated group
  protein content in BALF: lowered
[3]
  activity of SOD in lung: increased in a dose dependent manner
BALB/c mice [4]
  number of neutrophils / neutrophil infiltration in alveolar cavity: reduces neutrophil infiltration in alveolar cavity caused by LPS in a dose dependent manner
[5]
  activity of GSH (glutathione peroxidase) in lung: increased in a dose dependent manner
BALB/c mice [6]
  hyaline membrane formation in lung: reduces hyaline membrane formation in lung and immune cell infiltration induced by LPS in a dose dependent manner
  immune cell infiltration in lung: reduces hyaline membrane formation in lung and immune cell infiltration induced by LPS in a dose dependent manner
Catalase (CAT)
  activity of CAT in lung: increased in a dose dependent manner
BALB/c mice [7]
  lipid peroxidation in lung (MDA): prevents lipid peroxidation caused by LPS in a dose dependent manner
